From BindingDB's records for doi:10.1021/jm010566d (University Center For Pharmacy, 2002)

Assay: The binding affinity at 5-hydroxytryptamine 1D receptor was determined using [3H]5-CT

For `COc1cccc2c1N1CCN(C)C[C@@H]1c1ccccc1C2` [(+)-65-Methoxy-2-methyl-1,2,3,4,9,13b-hexahydro-2,4a-diaza-tribenzo[a,c,e]cycloheptene], which Ki is on record?
The Ki was 1470 nM.
